For this series, the system named is healthy volunteers (bent side of the forearm). Briefly: 24 hour-occlusion patch test (Finn Chamber) of the original specimen. The series is classed as in vivo, human. To be noted: 46 persons, 0.03 ml original specimen. As to the method:
“Test Method Using Patch Test”
The test was conducted using a Finn Chamber (8 mm in diameter) with 24 hour-occlusion.
Test subjects were 46 male and female healthy volunteers (33 males and 13 females) whose ages range from 22 to 59 (average 42); 0.03 ml of the original specimen of alkylene polyglycol dineopentanoate was applied on the bent side of the forearm of the test subjects for 24 hours. The application site was secured with an elastic bandage; three hours after the removal of the bandage and the adhesive plaster the first evaluation (after-24-hours evaluation) was conducted according to the evaluation criteria of Table 1, and 24 hours later another evaluation (after-48-hours evaluation) was conducted with the same criteria.

Turning to `CC(COC(=O)C(C)(C)C)OCC(C)OCC(C)OC(=O)C(C)(C)C` (stereo not shown) [Example 1, Tripropyleneglycol dineopentanoate], for the setting “evaluation time 24 hrs”, the “Equivocal ± (mild erythema), number of subjects” value (“Equivocal ± (mild erythema)” below) was 0; the “Negative − (no reaction), number of subjects” value (“Negative − (no reaction)” below) came to 46; the “Positive + (Weakly positive: erythema), number of subjects” value (“Positive + (Weakly positive: erythema)” for short) amounted to 0; the “Positive ++ (Moderately positive: erythema + edema), number of subjects” value is reported as 0. Further, under “evaluation time 24 hrs”, the “Positive +++ (Strongly positive), number of subjects” value (“Positive +++ (Strongly positive)” below) was determined as 0; the “Positive ++++ (Strongest positive: large blister), number of subjects” value (“Positive ++++” for short) was determined as 0; the Positive ratio came out at 0%. Also, where the note is “evaluation time 48 hrs”, the “Equivocal ± (mild erythema)” value came to 0; the “Negative − (no reaction)” value was determined as 46; the “Positive + (Weakly positive: erythema)” value was determined as 0; the “Positive ++ (Moderately positive: erythema + edema), number of subjects” value is 0. Moreover, for the setting “evaluation time 48 hrs”, the “Positive +++ (Strongly positive)” value came out at 0; the “Positive ++++” value was 0; the Positive ratio was 0%.
In the case of `CCCCCCCCC(=O)OCCCCCCC(C)C` [compound 3, Isononyl nonanoate, reference compound], under “evaluation time 24 hrs”, the “Equivocal ± (mild erythema)” value is reported as 5; the “Negative − (no reaction)” value worked out at 31; the “Positive + (Weakly positive: erythema)” value is 5; the “Positive ++ (Moderately positive: erythema + edema), number of subjects” value turned out to be 4. In addition, for the setting “evaluation time 24 hrs”, the “Positive +++ (Strongly positive)” value is 1; the “Positive ++++” value was determined as 0; the Positive ratio amounted to 22%. Besides, under “evaluation time 48 hrs”, the “Equivocal ± (mild erythema)” value was 5; the “Negative − (no reaction)” value stood at 32; the “Positive + (Weakly positive: erythema)” value was determined as 4; the “Positive ++ (Moderately positive: erythema + edema), number of subjects” value was determined as 5. Further, for the setting “evaluation time 48 hrs”, the “Positive +++ (Strongly positive)” value came to 0; the “Positive ++++” value is on record as 0; the Positive ratio turned out to be 20%.
`CC(COC(=O)C(C)(C)C)OCC(C)OCC(C)OCC(C)OC(=O)C(C)(C)C` (stereo not shown) [Example 3, Tetrapropyleneglycol dineopentanoate]: for the setting “evaluation time 24 hrs”, the “Equivocal ± (mild erythema)” value was 0; the “Negative − (no reaction)” value is recorded as 46; the “Positive + (Weakly positive: erythema)” value amounted to 0; the “Positive ++ (Moderately positive: erythema + edema), number of subjects” value was determined as 0. Besides, under “evaluation time 24 hrs”, the “Positive +++ (Strongly positive)” value is listed as 0; the “Positive ++++” value was determined as 0; the Positive ratio came out at 0%. For the same compound, under “evaluation time 48 hrs”, the “Equivocal ± (mild erythema)” value was 0; the “Negative − (no reaction)” value is 46; the “Positive + (Weakly positive: erythema)” value amounted to 0; the “Positive ++ (Moderately positive: erythema + edema), number of subjects” value was 0. Where the note is “evaluation time 48 hrs”, the “Positive +++ (Strongly positive)” value was found to be 0; the “Positive ++++” value is 0; the Positive ratio is listed as 0%.
`CC(COC(=O)C(C)(C)C)OCC(C)OC(=O)C(C)(C)C` (stereo not shown) [Example 2, Dipropyleneglycol dineopentanoate]: under “evaluation time 24 hrs”, the “Equivocal ± (mild erythema)” value was 0; the “Negative − (no reaction)” value is 46; the “Positive + (Weakly positive: erythema)” value is reported as 0; the “Positive ++ (Moderately positive: erythema + edema), number of subjects” value was determined as 0. Also, where the note is “evaluation time 24 hrs”, the “Positive +++ (Strongly positive)” value was 0; the “Positive ++++” value is 0; the Positive ratio stood at 0%. For the setting “evaluation time 48 hrs”, the “Equivocal ± (mild erythema)” value worked out at 0; the “Negative − (no reaction)” value is listed as 46; the “Positive + (Weakly positive: erythema)” value is listed as 0; the “Positive ++ (Moderately positive: erythema + edema), number of subjects” value came out at 0. In addition, where the note is “evaluation time 48 hrs”, the “Positive +++ (Strongly positive)” value came to 0; the “Positive ++++” value was 0; the Positive ratio came to 0%.
Consider “Isocetyl oleate [compound 1, reference compound]”, for which, for the setting “evaluation time 24 hrs”, the “Equivocal ± (mild erythema)” value is 3; the “Negative − (no reaction)” value is 39; the “Positive + (Weakly positive: erythema)” value stood at 2; the “Positive ++ (Moderately positive: erythema + edema), number of subjects” value is 2. Moreover, for the setting “evaluation time 24 hrs”, the “Positive +++ (Strongly positive)” value came to 0; the “Positive ++++” value is listed as 0; the Positive ratio was found to be 8.7%. Under “evaluation time 48 hrs”, the “Equivocal ± (mild erythema)” value is given as 2; the “Negative − (no reaction)” value worked out at 40; the “Positive + (Weakly positive: erythema)” value came out at 4; the “Positive ++ (Moderately positive: erythema + edema), number of subjects” value is listed as 0. Also, where the note is “evaluation time 48 hrs”, the “Positive +++ (Strongly positive)” value is given as 0; the “Positive ++++” value is given as 0; the Positive ratio is 8.7%.

These data come from patent US8404258B2, “External preparation for the skin” (Shiseido Company, Ltd., priority 2001, dated 2013).
